Test results as given in BindingDB's records for doi:10.1016/j.bmc.2012.12.025 (Astellas Pharma, 2013).

Experiments:
[1] = molecular target: Diamine oxidase AOC1 (Rattus norvegicus); assay: Inhibition of rat liver DAO using putrescine as substrate after 1 hr by fluorometric assay
[2] = molecular target: Diamine oxidase AOC1 (Homo sapiens); assay: Inhibition of human DAO expressed in CHO cells using putrescine as substrate after 1 hr by fluorometric assay

IC50 [1]: 75 µM
IC50 [2]: > 100 µM
SMILES: CC(=O)Nc1nc(CCc2ccc(N=C(N)N)cc2)cs1
